# Columns and labels:
# U-87 cells = test: Cytotoxicity assay in FAP+ U-87 cells (resazurin); assay type: cell-based
# Method: In 96-well plates, U-87 cells (3×10^3) were seeded in each well and incubated at 37° C. and 5% CO2 for 24 h. The medium was removed and the wells were washed once with PBS. The cytotoxic drug (positive control) or the eFAP conjugate containing the drug were prepared at various concentrations (i.e., 1, 10, 100, 1000 nM) in DMEM culture medium, supplemented with 2 mM L-glutamine, 10% FBS, 50 units/mL penicillin, and 50 μg/mL streptomycin. Medium was used as a negative control. Cells were incubated with 100 μL of the tested compounds for 1, 24, 48, and 72 h. After incubation, medium was removed and each well was washed once with PBS. Next, 100 μL of 10% resazurin solution in culture medium was added to each well and incubated for 2.5 h. Fluorescence measurements were carried out using a microplate reader at 544 nm excitation and 590 nm emission.
# mouse FAP (mFAP) = molecular target: T1, mouse FAP (mFAP) (Mus musculus, UniProt P97321); test: In vitro inhibition assay on mouse FAP (Z-GP-AMC substrate); assay type: biochemical; settings: 20 μM Z-GP-AMC, 20 nM FAP, pH 7.4, room temperature
# T1 sequence (P97321 26-761 limits assumed): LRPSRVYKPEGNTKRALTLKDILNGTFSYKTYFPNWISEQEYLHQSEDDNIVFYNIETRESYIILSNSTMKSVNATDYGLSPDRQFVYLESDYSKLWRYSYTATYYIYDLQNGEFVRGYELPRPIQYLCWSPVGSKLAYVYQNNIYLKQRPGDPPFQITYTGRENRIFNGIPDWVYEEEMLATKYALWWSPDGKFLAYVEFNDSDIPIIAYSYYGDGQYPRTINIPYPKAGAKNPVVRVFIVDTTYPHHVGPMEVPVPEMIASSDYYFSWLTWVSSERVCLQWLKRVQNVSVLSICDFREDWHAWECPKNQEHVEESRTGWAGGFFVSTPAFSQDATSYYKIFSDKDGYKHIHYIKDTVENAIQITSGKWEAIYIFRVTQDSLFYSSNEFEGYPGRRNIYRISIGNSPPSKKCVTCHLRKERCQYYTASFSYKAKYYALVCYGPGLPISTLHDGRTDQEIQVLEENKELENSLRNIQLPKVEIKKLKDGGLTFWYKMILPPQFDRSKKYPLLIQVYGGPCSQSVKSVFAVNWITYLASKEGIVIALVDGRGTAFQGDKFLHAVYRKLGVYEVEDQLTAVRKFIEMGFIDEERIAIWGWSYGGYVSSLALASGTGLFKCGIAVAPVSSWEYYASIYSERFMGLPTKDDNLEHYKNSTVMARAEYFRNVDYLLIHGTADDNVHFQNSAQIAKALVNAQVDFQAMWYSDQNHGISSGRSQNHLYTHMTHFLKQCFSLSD
# Method: (§1) Enzymatic activity of human FAP (hFAP) and mouse FAP (mFAP) on the Z-GP-AMC substrate was measured at room temperature on a Hidex microplate reader by monitoring the fluorescence at an excitation wavelength of 360 nm and an emission wavelength of 465 nm. The reaction mixture contained 20 μM substrate, 20 nM FAP, assay buffer (50 mM Tris, 100 mM NaCl, 1 mM EDTA, pH 7.4) and tested compound (serial dilution from 10-6 to 10^−12) in a total volume of 50 μL.
# Results with FAPI-46 obtained in the same assay is included for comparison.
# human FAP (hFAP) = molecular target: T2, human FAP (hFAP) (Homo sapiens, UniProt Q12884); test: In vitro inhibition assay on human FAP (Z-GP-AMC substrate); assay type: biochemical; settings: 20 μM Z-GP-AMC, 20 nM FAP, pH 7.4, room temperature
# T2 sequence (Q12884 26-760 limits assumed): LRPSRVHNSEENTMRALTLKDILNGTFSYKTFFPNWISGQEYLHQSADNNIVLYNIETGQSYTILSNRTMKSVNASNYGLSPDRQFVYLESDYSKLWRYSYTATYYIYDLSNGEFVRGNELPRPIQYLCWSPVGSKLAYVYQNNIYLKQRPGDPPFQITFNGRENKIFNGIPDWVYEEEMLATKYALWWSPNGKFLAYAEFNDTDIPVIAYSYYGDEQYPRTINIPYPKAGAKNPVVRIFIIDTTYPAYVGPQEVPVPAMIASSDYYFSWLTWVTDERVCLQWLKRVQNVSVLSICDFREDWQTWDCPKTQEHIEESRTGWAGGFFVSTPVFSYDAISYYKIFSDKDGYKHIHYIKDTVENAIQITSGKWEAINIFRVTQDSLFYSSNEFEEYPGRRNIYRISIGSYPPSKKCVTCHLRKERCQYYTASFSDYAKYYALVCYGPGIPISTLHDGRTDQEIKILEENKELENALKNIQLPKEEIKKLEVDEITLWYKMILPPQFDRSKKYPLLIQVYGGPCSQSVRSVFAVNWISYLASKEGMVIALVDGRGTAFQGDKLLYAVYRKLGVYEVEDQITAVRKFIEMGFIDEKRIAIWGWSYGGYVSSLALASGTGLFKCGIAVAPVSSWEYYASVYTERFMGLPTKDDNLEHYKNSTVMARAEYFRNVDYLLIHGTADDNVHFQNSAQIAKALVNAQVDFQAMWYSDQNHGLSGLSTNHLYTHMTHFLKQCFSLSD
# Method: as §1
# U-87 tumor = test: Near-infrared fluorescence imaging of U-87 tumor bearing mice; assay type: in vivo, mouse; settings: 2 nmol i.v., imaging 1 h, excised tumors 2.5 h
# From the text: Six-week-old male Balb/c nu/nu-specific and opportunistic pathogen-tree (SOPF) mice were housed in individually ventilated cages, with 4 mice per cage. Upon arrival, mice were acclimated for 1 week, with access to food and water ad libitum. Mice were subcutaneously inoculated on the right shoulder with U-87 or HT-1080.hFAP cells (1×10^6 cells). Xenografts were allowed to grow until they reached an appropriate size at the start of the studies. All animal experiments were approved by the Animal Welfare Committee of the Erasmus MC and were conducted in agreement with institutional guidelines (license number: AVD101002017867).
# Evaluation of targeting performance of eFAP-17 in near-infrared fluorescence imaging of U-87 tumor bearing mice after intravenous injection of 2 nmol of the probe are given in FIG. 9 showing A) NIRF imaging of U-87 tumor bearing mice at 1 h after intravenous injection of 2 nmol of CW800 (left, negative control) or eFAP-17 (right) and B) image of excised tumors 2.5 h post administration of CW800 (left) or eFAP-17 (right).
Compound,"viability at 1 µM (U-87 cells; Homo sapiens, U-87 MG, read-out: cell viability) [%]",IC50 (mouse FAP (mFAP)) [nM],IC50 (human FAP (hFAP)) [nM],"accumulation in healthy tissues, NIRF imaging (in words) (U-87 tumor)","tumor uptake, NIRF imaging (in words) (U-87 tumor)","cell viability (U-87 cells; FAP+ U-87 cells, single dose of eFAP-18 (1 μM) compared with the parent drug DM1) [%]"
"COc1cc2cc(c1Cl)N(C)C(=O)CC(OC(=O)C(C)N(C)C(=O)CCSSCCC(=O)NCCCOc1cccc3c(C(=O)NCC(=O)N4CC(F)(F)CC4C#N)ccnc13)C1(C)OC1C(C)C1CC(O)(NC(=O)O1)C(OC)C=CC=C(C)C2 [eFAP-18, (1^4S,1^6S,3^2S,3^3S,2R,4S,10E,12E,14R)-8^6-chloro-1^4-hydroxy-8^5,14-dimethoxy-3^3,2,7,10-tetramethyl-1^2,6-dioxo-7-aza-1(6,4)-oxazinana-3(2,3)-oxirana-8(1,3)-benzenacyclotetradecaphane-10,12-dien-4-yl N-(3-((3-((3-((4-((2-((S)-2-cyano-4,4-difluoropyrrolidin-1-yl)-2-oxoethyl)carbamoyl)quinolin-8-yl)oxy)propyl)amino)-3-oxopropyl)disulfaneyl)propanoyl)-N-methyl-L-alaninate]",~25,2 ± 0.1,2.6 ± 0.8,–,–,–
"CC1(C)C(/C=C/C2=C(Oc3ccc(S(=O)(=O)O)cc3)C(=C/C=C3/N(CCCCCC(=O)NCCCOc4cccc5c(C(=O)NCC(=O)N6CC(F)(F)C[C@H]6C#N)ccnc45)c4ccc(S(=O)(=O)O)cc4C3(C)C)/CCC2)=[N+](CCCCS(=O)(=O)[O-])c2ccc(S(=O)(=O)O)cc21 [eFAP-17, 4-(2-((E)-2-((E)-3-(2-((E)-1-(6-((3-((4-((2-((S)-2-Cyano-4,4-difluoropyrrolidin-1-yl)-2-oxoethyl)carbamoyl)quinolin-8-yl)oxy)propyl)amino)-6-oxohexyl)-3,3-dimethyl-5-sulfoindolin-2-ylidene)ethylidene)-2-(4-sulfophenoxy)cyclohex-1-en-1-yl)vinyl)-3,3-dimethyl-5-sulfo-3H-indol-1-ium-1-yl)butane-1-sulfonate]",–,5 ± 0.2,–,low accumulation in healthy tissues,high uptake in the FAP overexpressing tumor,–
"COc1cc2cc(c1Cl)N(C)C(=O)C[C@H](OC(=O)[C@H](C)N(C)C(=O)CCS)[C@]1(C)O[C@H]1[C@H](C)[C@@H]1C[C@@](O)(NC(=O)O1)[C@H](OC)/C=C/C=C(\C)C2 [DM1, Mertansine, reference compound]",–,–,–,–,–,40
"CC1(C)C(=CC=C2CCCC(C=CC3=[N+](CCCCS(=O)(=O)[O-])c4ccc(S(=O)(=O)O)cc4C3(C)C)=C2Oc2ccc(S(=O)(=O)O)cc2)N(CCCCCC(=O)NCC(O)CC(=O)NCC(O)CC(=O)NCCCOc2cccc3c(C(=O)NCC(=O)N4CC(F)(F)C[C@H]4C#N)ccnc23)c2ccc(S(=O)(=O)O)cc21 (stereo partly drawn) [eFAP-24, 2-((E)-2-((E)-3-(2-((E)-1-(6-((4-((4-((3-((4-((2-((S)-2-cyano-4,4-difluoropyrrolidin-1-yl)-2-oxoethyl)carbamoyl)quinolin-8-yl)oxy)propyl)amino)-2-hydroxy-4-oxobutyl)amino)-2-hydroxy-4-oxobutyl)amino)-6-oxohexyl)-3,3-dimethyl-5-sulfonatoindolin-2-ylidene)ethylidene)-2-(4-sulfonatophenoxy)cyclohex-1-en-1-yl)vinyl)-3,3-dimethyl-1-(4-sulfonatobutyl)-3H-indol-1-ium-5-sulfonate]",–,2.96 ± 0.15,3.04 ± 0.18,–,–,–
"N#C[C@@H]1CC(F)(F)CN1C(=O)CNC(=O)c1ccnc2c(OCCCNC(=O)CCC(C(=O)O)N3CCN(CC(=O)O)CCN(CC(=O)O)CCN(CC(=O)O)CC3)cccc12 (stereo partly drawn) [eFAP-8, 2,2′,2″-(10-(1-Carboxy-4-((3-((4-((2-((S)-2-cyano-4,4-difluoropyrrolidin-1-yl)-2-oxoethyl)carbamoyl)quinolin-8-yl)oxy)propyl)amino)-4-oxobutyl)-1,4,7,10-tetraazacyclododecane-1,4,7-triyl)triacetic acid]",–,1.1 ± 0.4,1.5 ± 0.2,–,–,–
"N#C[C@@H]1CC(F)(F)CN1C(=O)CNC(=O)c1ccnc2c(OCCCNC(=O)CN3CCC(NC(=O)CN4CCN(CC(=O)O)CCN(CC(=O)O)CCN(CC(=O)O)CC4)CC3)cccc12 [eFAP-10, (S)-2,2′,2″-(10-(2-((1-(2-((3-((4-((2-(2-Cyano-4,4-difluoropyrrolidin-1-yl)-2-oxoethyl)carbamoyl)quinolin-8-yl)oxy)propyl)amino)-2-oxoethyl)piperidin-4-yl)amino)-2-oxoethyl)-1,4,7,10-tetraazacyclododecane-1,4,7-triyl)triacetic acid]",–,2.4 ± 0.7,2.4 ± 0.7,–,–,–

# From patent publication US20260327242A1, “Platform and Scaffold for FAP Targeting Agents” (Erasmus University Medical Center Rotterdam, priority 2022, published 2026)
